Patent US9221836B2, “Heterocyclic compound and use thereof” (TAKEDA PHARMACEUTICAL COMPANY LIMITED, priority 2008, dated 2015)
Numbering of substitutions follows the chain as printed. Where a name gives a salt, the structure may show the parent alone.

Tests used:
[1] = molecular target: T1, plasma renin activity (PRA) (Macaca fascicularis, UniProt Q6DLS0); conditions: male Macaca fascicularis; 1 mg/kg orally in 0.5% methylcellulose; plasma 4 hr after administration; amended with vehicle group
T1 sequence (Q6DLS0 67-406): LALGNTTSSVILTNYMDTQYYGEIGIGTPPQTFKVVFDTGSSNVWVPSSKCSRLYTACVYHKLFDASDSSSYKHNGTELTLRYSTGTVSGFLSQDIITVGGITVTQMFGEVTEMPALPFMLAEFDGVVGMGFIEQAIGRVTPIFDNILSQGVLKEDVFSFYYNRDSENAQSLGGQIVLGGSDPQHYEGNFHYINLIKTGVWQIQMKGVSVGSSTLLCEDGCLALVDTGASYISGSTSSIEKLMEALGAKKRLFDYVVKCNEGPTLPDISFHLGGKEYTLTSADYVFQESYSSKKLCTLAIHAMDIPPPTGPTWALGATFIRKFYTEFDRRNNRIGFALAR
Method: Male macaca fascicularis was used. The blood samples were collected from femoral vein at the time points of before drug administration and 4 hr after drug administration (EDTA-2Na^+ at final concentration of 7.5 mmol/L was used as an anticoagulant). […] The drug was dissolved in 0.5% methylcellulose and orally administered at 1 mg/kg. […] PRA was calculated by the following formula.
X37° C.: angiotensin I concentration for incubation at 37° C.
X4° C.: angiotensin I concentration for incubation at 4° C.
PRA at each time point after drug administration was calculated as percentage relative to the value before administration and taken as PRA %. The renin inhibitory activity of the drug administration group was calculated as an inhibitory rate by amending the PRA % at each time point after drug administration with PRA % of the vehicle group.

[2] = molecular target: T2, Human renin (Homo sapiens, UniProt P00797); assay: Human renin inhibition, angiotensin I quantified by EIA; conditions: read-out: Human renin inhibitory activity: inhibitory activity (%) at 0.1 μM
T2 sequence (P00797 67-406): T1 sequence (Q6DLS0 67-406) with A2T, L148I, A169S
Method: (6) Measurement of Renin Inhibition Value
As a substrate for renin activity measurement, the angiotensinogen mentioned in (5) above was used. 1 μl each of the test compound (containing 100% DMSO) was added to each well of a 384-well plate (ABgene). Renin was diluted with a buffer solution for reaction (20 mM sodium phosphate (pH 7.4)) to a concentration of 57 pM, and 14 μl each of the dilution was added to each well. The dilution was left to stand at 37° C. for 10 min, and then 5 μl of each of a 6 μM solution of substrate angiotensinogen was added to each well to initiate the reaction. […] The amount of angiotensin I produced by an enzyme reaction was quantified by Enzyme Immuno Assay (EIA) described below.
Anti-angiotensin I antibody (Peninsula Laboratories Inc.) diluted 5,000-fold with PBS was added to each well of a 384 well black plate (Nalge Nunc International Co., Ltd.) by 25 μl, and left standing overnight at 4° C. to immobilize the antibody in the plate. The antibody solution was removed, PBS solution (100 μl) containing 1% BSA was added to each well, and the mixture was left standing at room temperature for 2 hr for blocking. The blocking solution was removed, and each well was washed 5 times with 100 μl of 0.05% Tween20-PBS. […] Then, a biotinated angiotensin I solution (AnaSpec, 15 μl) prepared to 1.6 nM with a buffer [20 mM tris-hydrochloric acid (pH 7.4), 150 mM sodium chloride, 0.01% BSA, 0.05% Tween20] was added to each well, mixed with a plate mixer and left standing at room temperature for 1 hr. The solutions were removed from each well, and each well was washed 5 times with 100 μl of 0.05% Tween20-PBS. Horseradish peroxydase Streptavidin (PIERCE Biotecnology inc., 25 μl) diluted to 100 ng/ml with a buffer [20 mM tris-hydrochloric acid (pH 7.4), 150 mM sodium chloride, 0.1% BSA, 0.05% Tween 20] was added to each well and the mixture was left standing at room temperature for 30 min. The solutions were removed from each well, and each well was washed 5 times with 100 μl of 0.05% Tween20-PBS. SuperSignal ELISA femto Maximum Sensitivity Substrate (PIERCE Biotecnology Inc.) was added by 25 μl and luminescence intensity was measured by EnVision (Perkin Elmer Inc.). An analytical curve was drawn from the luminescence intensity of wells containing an angiotensin I standard solution, and the amount of angiotensin I produced by an enzyme reaction was calculated and used as an index of renin activity.

## COCCCCn1c(C(=O)N(CC(C)C)[C@@H]2CNC[C@H](C(=O)OCc3oc(=O)oc3C)C2)nc2ccccc21 [Example 7, (5-methyl-2-oxo-1,3-dioxol-4-yl)methyl (3R,5S)-5-[{[1-(4-methoxybutyl)-1H-benzimidazol-2-yl]carbonyl}(2-methylpropyl)amino]piperidine-3-carboxylate dihydrochloride]
[1]
  Macaca fascicularis plasma renin activity: PPA inhibitory activity (%, n = 3-7): 93%

## COCCCCn1c(C(=O)N(CC(C)C)[C@@H]2CNC[C@H](C(=O)N3CCOCC3)C2)nc2ccccc21 [Example 10, 1-(4-methoxybutyl)-N-(2-methylpropyl)-N-[(3S,5R)-5-(morpholin-4-ylcarbonyl)piperidin-3-yl]-1H-benzimidazole-2-carboxamide dihydrochloride]
[1]
  Macaca fascicularis plasma renin activity: PPA inhibitory activity (%, n = 3-7): 72%

## COCCCCn1c(C(=O)N(CC(C)C)[C@@H]2CNC[C@H](C(=O)N3CCOCC3)C2)nc2ccc(F)cc21 [Example 11, 6-fluoro-1-(4-methoxybutyl)-N-(2-methylpropyl)-N-[(3S,5R)-5-(morpholin-4-ylcarbonyl)piperidin-3-yl]-1H-benzimidazole-2-carboxamide dihydrochloride]
[1]
  Macaca fascicularis plasma renin activity: PPA inhibitory activity (%, n = 3-7): 89%

## COCCCCn1c(C(=O)N(CC(C)C)[C@@H]2CNC[C@H](C(=O)N3CCCC3)C2)nc2cc(F)ccc21 [Example 18, 5-fluoro-1-(4-methoxybutyl)-N-(2-methylpropyl)-N-[(3S,5R)-5-(pyrrolidin-1-ylcarbonyl)piperidin-3-yl]-1H-benzimidazole-2-carboxamide dihydrochloride]
[1]
  Macaca fascicularis plasma renin activity: PPA inhibitory activity (%, n = 3-7): 89%

## COCCCCn1c(C(=O)N(CC(C)C)[C@@H]2CNC[C@H](C(=O)N3CCCCC3)C2)nc2ccccc21 [Example 21, 1-(4-methoxybutyl)-N-(2-methylpropyl)-N-[(3S,5R)-5-(piperidin-1-ylcarbonyl)piperidin-3-yl]-1H-benzimidazole-2-carboxamide dihydrochloride]
[1]
  Macaca fascicularis plasma renin activity: PPA inhibitory activity (%, n = 3-7): 85%

## COCCCCn1c(C(=O)N(CC(C)C)[C@@H]2CNC[C@H](C(N)=O)C2)nc2ccccc21 [Example 25, N-[(3S,5R)-5-carbamoylpiperidin-3-yl]-1-(4-methoxybutyl)-N-(2-methylpropyl)-1H-benzimidazole-2-carboxamide dihydrochloride]
[1]
  Macaca fascicularis plasma renin activity: PPA inhibitory activity (%, n = 3-7): 79%

## COCCCCn1c(C(=O)N(CC(C)C)[C@@H]2CNC[C@H](C(=O)O)C2)nc2ccccc21 [Example 33, (3R,5S)-5-[{[1-(4-methoxybutyl)-1H-benzimidazol-2-yl]carbonyl}(2-methylpropyl)amino]piperidine-3-carboxylic acid dihydrochloride]
[1]
  Macaca fascicularis plasma renin activity: PPA inhibitory activity (%, n = 3-7): 77%

## COCCCCn1c(C(=O)N(CC(C)C)[C@@H]2CNC[C@H](CO)C2)nc2ccccc21 [Example 40, N-[(3S,5R)-5-(hydroxymethyl)piperidin-3-yl]-1-(4-methoxybutyl)-N-(2-methylpropyl)-1H-benzimidazole-2-carboxamide dihydrochloride]
[1]
  Macaca fascicularis plasma renin activity: PPA inhibitory activity (%, n = 3-7): 75%

## COCCCCn1c(C(=O)N(CC(C)C)[C@@H]2CNC[C@H](C(C)O)C2)nc2ccccc21 (stereo partly drawn) [Example 42, N-[(3S,5R)-5-(1-hydroxyethyl)piperidin-3-yl]-1-(4-methoxybutyl)-N-(2-methylpropyl)-1H-benzimidazole-2-carboxamide dihydrochloride]
[1]
  Macaca fascicularis plasma renin activity: PPA inhibitory activity (%, n = 3-7): 70%

## COCCCCn1c(C(=O)N(CC(C)C)[C@@H]2CNC[C@H](C(O)COC)C2)nc2ccccc21 (stereo partly drawn) [Example 48, N-[(3S,5R)-5-(1-hydroxy-2-methoxyethyl)piperidin-3-yl]-1-(4-methoxybutyl)-N-(2-methylpropyl)-1H-benzimidazole-2-carboxamide dihydrochloride]
[1]
  Macaca fascicularis plasma renin activity: PPA inhibitory activity (%, n = 3-7): 78%

## COCCCCn1c(C(=O)N(CC(C)C)[C@@H]2CNC[C@H](C(=O)N3CCOCC3)C2)nc2ccc(OC)cc21 [Example 60, 6-methoxy-1-(4-methoxybutyl)-N-(2-methylpropyl)-N-{(3S,5R)-5-(morpholin-4-ylcarbonyl)piperidin-3-yl}-1H-benzimidazole-2-carboxamide dihydrochloride]
[1]
  Macaca fascicularis plasma renin activity: PPA inhibitory activity (%, n = 3-7): 85%

## COCCCCn1c(C(=O)N(CC(C)C)[C@@H]2CNC[C@H](C(=O)N3CCCC3)C2)nc2ccc(OC)cc21 [Example 62, 6-methoxy-1-(4-methoxybutyl)-N-(2-methylpropyl)-N-{(3S,5R)-5-(pyrrolidin-1-ylcarbonyl)piperidin-3-yl}-1H-benzimidazole-2-carboxamide dihydrochloride]
[1]
  Macaca fascicularis plasma renin activity: PPA inhibitory activity (%, n = 3-7): 75%

## COCCCCn1c(C(=O)N(CC(C)C)[C@@H]2CNC[C@H]([C@@H](O)COC)C2)nc2ccccc21.Cl.Cl [Example 73-1, N-{(3S,5R)-5-[(1R)-1-hydroxy-2-methoxyethyl]piperidin-3-yl}-1-(4-methoxybutyl)-N-(2-methylpropyl)-1H-benzimidazole-2-carboxamide dihydrochloride]
[1]
  Macaca fascicularis plasma renin activity: PPA inhibitory activity (%, n = 3-7): 77%

## COCCCCn1c(C(=O)N(CC(C)C)[C@@H]2CNC[C@H]([C@H](O)COC)C2)nc2ccccc21.Cl.Cl [Example 73-2, N-{(3S,5R)-5-[(1S)-1-hydroxy-2-methoxyethyl]piperidin-3-yl}-1-(4-methoxybutyl)-N-(2-methylpropyl)-1H-benzimidazole-2-carboxamide dihydrochloride]
[1]
  Macaca fascicularis plasma renin activity: PPA inhibitory activity (%, n = 3-7): 90%

## COCCCCn1c(C(=O)N(CC(C)C)[C@@H]2CNC[C@H]([C@H](C)O)C2)nc2ccccc21.Cl.Cl [Example 74-1, N-{(3S,5R)-5-[(1S)-1-hydroxyethyl]piperidin-3-yl}-1-(4-methoxybutyl)-N-(2-methylpropyl)-1H-benzimidazole-2-carboxamide dihydrochloride]
[2]
  inhibition at 0.1 µM: 94%
[1]
  Macaca fascicularis plasma renin activity: PPA inhibitory activity (%, n = 3-7): 90%

## COCCCCn1c(C(=O)N(CC(C)C)[C@@H]2CNC[C@H]([C@@H](C)O)C2)nc2ccccc21.Cl.Cl [Example 74-2, N-{(3S,5R)-5-[(1R)-1-hydroxyethyl]piperidin-3-yl}-1-(4-methoxybutyl)-N-(2-methylpropyl)-1H-benzimidazole-2-carboxamide dihydrochloride]
[2]
  inhibition at 0.1 µM: 96%
[1]
  Macaca fascicularis plasma renin activity: PPA inhibitory activity (%, n = 3-7): 54%

## CC[C@H](O)[C@H]1CNC[C@@H](N(CC(C)C)C(=O)c2nc3ccccc3n2CCCCOC)C1.Cl.Cl [Example 75-1, N-{(3S,5R)-5-[(1S)-1-hydroxypropyl]piperidin-3-yl}-1-(4-methoxybutyl)-N-(2-methylpropyl)-1H-benzimidazole-2-carboxamide dihydrochloride]
[2]
  inhibition at 0.1 µM: 95%
[1]
  Macaca fascicularis plasma renin activity: PPA inhibitory activity (%, n = 3-7): 86%

## CCC(O)[C@H]1CNC[C@@H](N(CC(C)C)C(=O)c2nc3ccccc3n2CCCCOC)C1 (stereo partly drawn) [Example 76, N-[(3S,5R)-5-(1-hydroxypropyl)piperidin-3-yl]-1-(4-methoxybutyl)-N-(2-methylpropyl)-1H-benzimidazole-2-carboxamide dihydrochloride]
[1]
  Macaca fascicularis plasma renin activity: PPA inhibitory activity (%, n = 3-7): 79%

## COCCCCc1c(C(=O)N(CC(C)C)[C@@H]2CNC[C@H](C(=O)N3CCOCC3)C2)nnn1-c1ccccc1F.Cl [Example 233, 1-(2-fluorophenyl)-5-(4-methoxybutyl)-N-(2-methylpropyl)-N-[(3S,5R)-5-(morpholin-4-ylcarbonyl)piperidin-3-yl]-1H-1,2,3-triazole-4-carboxamide hydrochloride]
[1]
  Macaca fascicularis plasma renin activity: PPA inhibitory activity (%, n = 3-7): 67%

## COCCCCc1c(C(=O)N(CC(C)C)[C@@H]2CNC[C@H](C(=O)N3CCOCC3)C2)nnn1-c1ccccc1Cl.Cl [Example 235, 1-(2-chlorophenyl)-5-(4-methoxybutyl)-N-(2-methylpropyl)-N-[(3S,5R)-5-(morpholin-4-ylcarbonyl)piperidin-3-yl]-1H-1,2,3-triazole-4-carboxamide hydrochloride]
[1]
  Macaca fascicularis plasma renin activity: PPA inhibitory activity (%, n = 3-7): 62%

## COCCCCn1c(C(=O)N(CC2CC2)[C@@H]2CNC[C@H](C(=O)N3CCOCC3)C2)nc2ccccc21 [Example 253, N-(cyclopropylmethyl)-1-(4-methoxybutyl)-N-[(3S,5R)-5-(morpholin-4-ylcarbonyl)piperidin-3-yl]-1H-benzimidazole-2-carboxamide dihydrochloride]
[1]
  Macaca fascicularis plasma renin activity: PPA inhibitory activity (%, n = 3-7): 77%
